PMC5126668 (PeerJ, 2016)
Several values for one entry are separate records, joined by “and”; a condition that tells them apart may be missing. Equal values may be shown once.

Experiments:
rat kidney [1] = test: Kim-1 in rat urine after a single oral dose (ELISA); type: in vivo, Sprague–Dawley rats; conditions: for KIM-1: single oral dose
Method: (§1) The blood samples were taken 24 h after the administration of a single oral dose in each group. The samples were promptly centrifuged, and the biochemical parameters, including the levels of ALT, AST, BUN, Cr, and NAG, were then measured. The level of Kim-1 was measured in collected urine samples according to the kit instructions.

rat liver = test: Hepatic functional markers (ALT, AST) in rats after a single oral dose; type: in vivo, Sprague–Dawley rats; conditions: 24 h after single oral dose, mg/kg: AA I 70, BAK 200, ABT 100, GA 100, combinations 200+100
Method: as §1

rat kidney [2] = test: Renal functional markers (BUN, Cr, NAG) in rats after a single oral dose; conditions: for BUN / Cr / NAG: rats, single oral dose
Method: ABT, a broad-spectrum nonspecific CYP inhibitor, was selected as a positive control inhibitor of CYP enzymes. Aristolochic acid A (AA I) was selected as the nephrotoxicity positive control in the study.
The samples were promptly centrifuged, and the biochemical parameters, including the levels of ALT, AST, BUN, Cr, and NAG, were then measured. The level of Kim-1 was measured in collected urine samples according to the kit instructions.

[3] = individual animals (Fig. 3 data)
[4] = rat, 24 h after single oral dose, vs vehicle control

For `COc1cccc2c1cc([N+](=O)[O-])c1c(C(=O)O)cc3c(c12)OCO3` [AA I, Aristolochic acid A], the “Kim-1 level (in words)” value (rat kidney [1]; after single oral dose, vs vehicle control) was “significantly increased”, the KIM-1 (rat kidney [1]; group Mean (Fig. 3 data)) was 1538.00 pg/mL and the KIM-1 (rat kidney [1]; [3]) was 804.00 pg/mL and 2994.00 pg/mL and 624.00 pg/mL and 2464.00 pg/mL. The “ALT (IU/L)” value (rat liver) was 41.91±3.40 IU/L, the “AST (IU/L)” value (rat liver) was 29.08±8.01 IU/L and the “BUN level (in words)” value (rat kidney [2]; [4]) was “significantly increased”. For the same compound, the “Cr level (in words)” value (rat kidney [2]; [4]) was “significantly increased”, the “NAG level (in words)” value (rat kidney [2]; [4]) was “significantly increased” and the BUN (rat kidney [2]; group Mean (Fig. 3 data)) was 6.405 mmol/L. The Cr (rat kidney [2]; group Mean (Fig. 3 data)) was 367.877 µmol/L, the NAG (rat kidney [2]; group Mean (Fig. 3 data)) was 42.409 IU/L and the BUN (rat kidney [2]; [3]) was 5.797 mmol/L and 6.023 mmol/L and 6.135 mmol/L and 7.373 mmol/L and 6.698 mmol/L. For the same compound, the Cr (rat kidney [2]; [3]) was 298.782 µmol/L and 308.970 µmol/L and 369.706 µmol/L and 567.416 µmol/L and 294.508 µmol/L and the NAG (rat kidney [2]; [3]) was 23.912 IU/L and 43.077 IU/L and 48.176 IU/L and 27.429 IU/L and 69.451 IU/L.
